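Compound exposure: 48 hours, 5 concentrations, 96-well plates. TGI: total growth inhibition.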
Experiments:
Test in all cases: NCI-60 cell line screen, 48 h
MOLT-4 leukemia = test system: MOLT-4 leukemia
CAKI-1 renal = test system: CAKI-1 renal
COLO 205 colon = test system: COLO 205 colon
OVCAR-4 ovarian = test system: OVCAR-4 ovarian
786-0 renal = test system: 786-0 renal
HCC-2998 colon = test system: HCC-2998 colon
SF-268 CNS = test system: SF-268 CNS
K-562 leukemia = test system: K-562 leukemia
RXF 393 renal = test system: RXF 393 renal
CCRF-CEM leukemia = test system: CCRF-CEM leukemia
SN12C renal = test system: SN12C renal
HCT-15 colon = test system: HCT-15 colon
HOP-18 NSCLC = test system: HOP-18 NSCLC
SF-295 CNS = test system: SF-295 CNS
HOP-62 NSCLC = test system: HOP-62 NSCLC
UO-31 renal = test system: UO-31 renal
SK-MEL-2 melanoma = test system: SK-MEL-2 melanoma
SW-620 colon = test system: SW-620 colon
SNB-75 CNS = test system: SNB-75 CNS
OVCAR-3 ovarian = test system: OVCAR-3 ovarian
UACC-62 melanoma = test system: UACC-62 melanoma
UACC-257 melanoma = test system: UACC-257 melanoma
SNB-78 CNS = test system: SNB-78 CNS
SK-OV-3 ovarian = test system: SK-OV-3 ovarian
SK-MEL-5 melanoma = test system: SK-MEL-5 melanoma
SF-539 CNS = test system: SF-539 CNS
A549 NSCLC = test system: A549 NSCLC
NCI-H522 lung = test system: NCI-H522 lung
HL-60(TB) leukemia = test system: HL-60(TB) leukemia
HT29 colon = test system: HT29 colon
SR leukemia = test system: SR leukemia
NCI-H226 lung = test system: NCI-H226 lung
HOP-92 NSCLC = test system: HOP-92 NSCLC
EKVX NSCLC = test system: EKVX NSCLC
U251 CNS = test system: U251 CNS
SK-MEL-28 melanoma = test system: SK-MEL-28 melanoma
SNB-19 CNS = test system: SNB-19 CNS
KM20L2 colon = test system: KM20L2 colon
OVCAR-5 ovarian = test system: OVCAR-5 ovarian
DLD-1 colon = test system: DLD-1 colon
M19-MEL melanoma = test system: M19-MEL melanoma
IGROV1 ovarian = test system: IGROV1 ovarian
LXFL 529 NSCLC = test system: LXFL 529 NSCLC
A498 renal = test system: A498 renal
M14 melanoma = test system: M14 melanoma
HCT-116 colon = test system: HCT-116 colon
OVCAR-8 ovarian = test system: OVCAR-8 ovarian
NCI-H23 lung = test system: NCI-H23 lung
TK-10 renal = test system: TK-10 renal
LOX IMVI melanoma = test system: LOX IMVI melanoma
NCI-H460 lung = test system: NCI-H460 lung
MALME-3M melanoma = test system: MALME-3M melanoma
KM12 colon = test system: KM12 colon
XF 498 CNS = test system: XF 498 CNS
DMS 114 small cell lung = test system: DMS 114 small cell lung
ACHN renal = test system: ACHN renal
DMS 273 small cell lung = test system: DMS 273 small cell lung

Measured: TGI

CC1(C)CC(=O)C(/C(=N/NC(=S)NN)C(=O)Nc2nc3ccc([N+](=O)[O-])cc3s2)C(=O)C1
not listed: DMS 273 small cell lung
> 100 µM: all other assays above

C=CNC(=O)NC(=O)CSc1nnc(-c2ccccc2NC(=O)C(F)(F)F)c(=O)[nH]1
28.8 µM: MALME-3M melanoma
86.6 µM: HOP-92 NSCLC
22.7 µM: DLD-1 colon
2.06 µM: SK-MEL-5 melanoma
0.968 µM: SNB-75 CNS
43.1 µM: DMS 114 small cell lung
not listed: OVCAR-4 ovarian | HOP-18 NSCLC | UACC-257 melanoma | HL-60(TB) leukemia | KM20L2 colon | A498 renal | ACHN renal
> 100 µM: all other assays above

Cc1cc(C)nc(NS(=O)(=O)c2ccc(NC(=O)c3cccc4c(Nc5ccc(S(=O)(=O)Nc6cc(C)on6)cc5)c5ccccc5nc34)cc2)n1
50 µM: SK-MEL-28 melanoma
30.4 µM: KM12 colon
40.9 µM: UACC-62 melanoma
34 µM: OVCAR-5 ovarian
39.6 µM: RXF 393 renal
46.7 µM: HT29 colon | SNB-19 CNS
80.3 µM: SR leukemia
38.9 µM: OVCAR-3 ovarian
68.4 µM: HL-60(TB) leukemia
42.6 µM: NCI-H23 lung
39.8 µM: DMS 114 small cell lung
40.2 µM: U251 CNS
75.6 µM: EKVX NSCLC
62.4 µM: M19-MEL melanoma
44.7 µM: MALME-3M melanoma
50.2 µM: OVCAR-4 ovarian
45.4 µM: HOP-62 NSCLC
86.4 µM: MOLT-4 leukemia
47.5 µM: M14 melanoma
47.2 µM: UACC-257 melanoma
32.5 µM: NCI-H522 lung
75.7 µM: CCRF-CEM leukemia
35.6 µM: LOX IMVI melanoma
35.7 µM: SF-539 CNS
29.4 µM: HCC-2998 colon
40 µM: SK-MEL-2 melanoma
59.9 µM: NCI-H460 lung
61.8 µM: SN12C renal
> 100 µM: UO-31 renal | SNB-78 CNS | DLD-1 colon | TK-10 renal | ACHN renal
35.5 µM: LXFL 529 NSCLC
84 µM: HCT-116 colon
47.6 µM: XF 498 CNS
48.9 µM: SNB-75 CNS
65.2 µM: SF-268 CNS
68.5 µM: A498 renal
80.6 µM: K-562 leukemia
75.2 µM: SK-OV-3 ovarian

CC(C)=CC(=O)N(C)C1C2CN3CCC(O2)C13 (stereo not drawn)
not listed: SR leukemia | HOP-92 NSCLC
> 100 µM: all other assays above

Reference: PubChem BioAssay (NCI)
